Experimental findings from patent publication US20250002455A1, “NEW N-PHENYLPYRROLAMIDE INHIBITORS OF DNA GYRASE AND TOPOISOMERASE IV WITH ANTIBACTERIAL ACTIVITY” (priority 2020, published 2025) are described below.

For assay [1], the target named is T1, E. coli DNA gyrase (Escherichia coli, UniProt P0AES6).
T1 construct: purchased Inspiralis
Kind of assay: biochemical. The settings on record: E. coli DNA gyrase; for pIC50: read-out: IC50; for remaining activity at 1 µM: 1 μM compound. The gist of the method: (§1)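 Triplex-capture format: plasmid bound to a biotinylated oligonucleotide on streptavidin plates after reaction at 37 °C for 30 min. The reaction was stopped with TF buffer (50 mM NaOAc pH 5.0, 50 mM NaCl, 50 mM MgCl2), and captured DNA was stained with SybrGOLD. IC50 values are the mean of three independent measurements.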

In assay [2] the target is T2, S. aureus topoisomerase IV (Staphylococcus aureus, UniProt P0C1S7).
T2 construct: purchased Inspiralis
T2 sequence (P0C1U9 whole entry): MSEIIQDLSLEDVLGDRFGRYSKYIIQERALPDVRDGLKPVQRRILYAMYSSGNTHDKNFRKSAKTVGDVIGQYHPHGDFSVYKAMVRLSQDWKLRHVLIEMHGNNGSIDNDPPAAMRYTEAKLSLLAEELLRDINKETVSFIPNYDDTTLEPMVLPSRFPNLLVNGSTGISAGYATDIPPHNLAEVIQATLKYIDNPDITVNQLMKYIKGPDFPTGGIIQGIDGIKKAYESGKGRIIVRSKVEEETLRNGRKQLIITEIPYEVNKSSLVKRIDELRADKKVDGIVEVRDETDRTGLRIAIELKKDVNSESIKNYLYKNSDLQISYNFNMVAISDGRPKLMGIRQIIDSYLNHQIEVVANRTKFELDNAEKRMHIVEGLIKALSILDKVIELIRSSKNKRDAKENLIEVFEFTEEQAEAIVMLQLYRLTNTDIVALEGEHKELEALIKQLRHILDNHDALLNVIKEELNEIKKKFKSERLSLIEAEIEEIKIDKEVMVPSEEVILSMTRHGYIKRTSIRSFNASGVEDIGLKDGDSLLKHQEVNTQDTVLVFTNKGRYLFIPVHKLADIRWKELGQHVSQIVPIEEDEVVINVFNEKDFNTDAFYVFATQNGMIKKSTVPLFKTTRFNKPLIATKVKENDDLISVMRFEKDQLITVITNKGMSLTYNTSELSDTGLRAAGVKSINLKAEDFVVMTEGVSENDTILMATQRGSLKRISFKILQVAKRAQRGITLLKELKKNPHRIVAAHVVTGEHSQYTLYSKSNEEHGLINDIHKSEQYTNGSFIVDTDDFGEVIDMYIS
T2 sequence (P0C1S7 whole entry): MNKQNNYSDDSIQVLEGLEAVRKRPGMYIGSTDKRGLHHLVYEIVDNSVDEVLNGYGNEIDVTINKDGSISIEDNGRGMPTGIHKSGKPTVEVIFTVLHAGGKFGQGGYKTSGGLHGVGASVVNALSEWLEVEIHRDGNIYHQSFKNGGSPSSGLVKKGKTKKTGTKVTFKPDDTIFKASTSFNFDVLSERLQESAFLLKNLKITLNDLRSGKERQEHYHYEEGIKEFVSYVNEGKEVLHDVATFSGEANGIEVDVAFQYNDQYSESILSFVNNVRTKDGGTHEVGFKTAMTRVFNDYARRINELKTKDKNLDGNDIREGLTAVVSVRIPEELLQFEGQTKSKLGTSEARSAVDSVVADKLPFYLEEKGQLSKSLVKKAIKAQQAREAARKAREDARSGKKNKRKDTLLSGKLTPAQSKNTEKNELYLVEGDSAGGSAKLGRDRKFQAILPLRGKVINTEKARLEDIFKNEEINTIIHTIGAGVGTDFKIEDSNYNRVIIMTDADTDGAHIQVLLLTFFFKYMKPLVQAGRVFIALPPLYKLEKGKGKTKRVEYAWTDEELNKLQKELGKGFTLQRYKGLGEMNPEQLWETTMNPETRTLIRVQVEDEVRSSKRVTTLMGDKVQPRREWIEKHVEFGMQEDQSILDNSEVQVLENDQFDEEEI
Kind of assay: Topoisomerase IV inhibition assay (Inspiralis, streptavidin-coated plates). The assay is classed as biochemical. The settings on record: for remaining activity at 0.1 µM: 0.1 μM compound. The method, then:
(§2) Inhibitory activities for compounds of the present invention were determined on E. coli and S. aureus DNA gyrase and topoisomerase IV in an assay from Inspiralis on streptavidin-coated 96-well microtiter plates from Thermo scientific Pierce. […] After washing off the unbound oligonucleotide, the enzyme test was performed. […] Reaction solutions were incubated at 37° C. for 30 min. After that, the TF buffer (50 mM NaOAc with pH 5.0, 50 mM NaCl and 50 mM MgCl2) was added to terminate the enzymatic reaction. After additional incubation for 30 min at rt, during which biotin-oligonucleotide-plasmid triplex was formed, the unbound plasmid was washed off using TF buffer and SybrGOLD in T10 buffer (10 mM Tris HCl with pH 8.0 and 1 mM EDTA) was added. […] Initial screening was done at 100 or 10 nM concentration of inhibitors against E. coli DNA gyrase or 1 μM or 100 nM concentration against S. aureus DNA gyrase and E. coli and S. aureus topo IV. […] GraphPad Prism 6.0 software was used to calculate the IC50 values. The result is given as the average value of three independent measurements. […] Chemoth.

Assay [3] concerns the target T3, S. aureus DNA gyrase (Staphylococcus aureus, UniProt P0A0K8).
T3 construct: purchased Inspiralis
Kind of assay: biochemical. Conditions: S. aureus DNA gyrase; for pIC50: read-out: IC50. The method in brief: as §1

The target of assay [4] is T4, E. coli topoisomerase IV (Escherichia coli, UniProt P20083).
T4 construct: purchased Inspiralis
T4 sequence (P0AFI2 whole entry): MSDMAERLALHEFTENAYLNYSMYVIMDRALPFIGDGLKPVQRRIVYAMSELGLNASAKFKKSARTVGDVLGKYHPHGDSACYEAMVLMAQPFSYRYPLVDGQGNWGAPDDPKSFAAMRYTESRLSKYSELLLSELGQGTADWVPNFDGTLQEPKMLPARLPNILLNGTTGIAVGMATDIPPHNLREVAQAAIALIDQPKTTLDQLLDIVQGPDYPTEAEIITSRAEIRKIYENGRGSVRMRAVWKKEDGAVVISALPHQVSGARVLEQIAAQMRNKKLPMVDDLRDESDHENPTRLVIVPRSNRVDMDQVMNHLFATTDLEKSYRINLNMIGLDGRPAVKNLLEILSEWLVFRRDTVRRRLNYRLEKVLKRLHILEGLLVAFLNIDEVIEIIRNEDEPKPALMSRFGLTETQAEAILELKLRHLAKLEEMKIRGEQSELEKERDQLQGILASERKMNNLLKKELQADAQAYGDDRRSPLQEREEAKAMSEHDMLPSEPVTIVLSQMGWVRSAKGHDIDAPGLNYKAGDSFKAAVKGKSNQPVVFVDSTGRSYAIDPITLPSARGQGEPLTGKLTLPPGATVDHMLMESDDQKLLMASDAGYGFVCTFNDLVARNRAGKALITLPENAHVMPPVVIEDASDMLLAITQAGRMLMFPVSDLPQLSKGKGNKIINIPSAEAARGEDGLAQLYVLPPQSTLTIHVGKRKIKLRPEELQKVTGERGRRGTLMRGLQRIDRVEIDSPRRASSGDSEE
T4 sequence (P20083 whole entry): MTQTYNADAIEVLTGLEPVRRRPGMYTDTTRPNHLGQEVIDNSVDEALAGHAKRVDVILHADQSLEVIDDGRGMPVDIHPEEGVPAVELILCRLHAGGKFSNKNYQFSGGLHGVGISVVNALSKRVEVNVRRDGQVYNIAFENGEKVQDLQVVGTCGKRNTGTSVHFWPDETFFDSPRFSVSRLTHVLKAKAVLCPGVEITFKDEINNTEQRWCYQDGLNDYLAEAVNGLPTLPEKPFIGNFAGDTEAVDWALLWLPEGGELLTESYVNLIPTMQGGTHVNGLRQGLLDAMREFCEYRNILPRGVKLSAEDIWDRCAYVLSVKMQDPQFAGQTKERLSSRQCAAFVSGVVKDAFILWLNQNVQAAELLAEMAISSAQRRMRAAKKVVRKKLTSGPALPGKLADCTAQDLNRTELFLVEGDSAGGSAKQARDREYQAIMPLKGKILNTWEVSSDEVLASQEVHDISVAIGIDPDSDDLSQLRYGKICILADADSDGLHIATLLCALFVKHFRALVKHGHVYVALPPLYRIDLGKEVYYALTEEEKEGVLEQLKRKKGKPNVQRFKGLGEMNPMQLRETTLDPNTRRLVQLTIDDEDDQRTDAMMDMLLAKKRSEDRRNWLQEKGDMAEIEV
Kind of assay: biochemical. The settings on record: E. coli topo IV; for pIC50: read-out: IC50. The method, then:
as §2

Assay [5] deals with A. baumannii ATCC 17978. As to the kind of experiment: Microbroth dilution MIC (CLSI). The assay is classed as cell-based. The settings on record: Acinetobacter baumannii, ATCC17978; A. baumannii ATCC 17978; read-out: MIC. The gist of the method:
(§3)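 CLSI microbroth dilution (M07-A8 aerobes, M11-A8 anaerobes) with two-fold serial compound dilutions made in 100% DMSO. MIC read as lowest concentration giving no visible growth.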

Assay [6] has as its system E. coli ATCC 25922. Kind of assay: Microbroth dilution MIC (CLSI). It is filed as cell-based. The settings on record: Escherichia coli, ATCC25922; E. coli ATCC 25922; read-out: MIC. The method in brief:
as §3

The test system of assay [7] is E. faecalis ATCC 29212. As to the kind of experiment: Microbroth dilution MIC (CLSI). It is filed as cell-based. The settings on record: Enterococcus faecalis, ATCC29212; E. faecalis ATCC 29212; read-out: MIC. The method in brief: as §3
Assay [8] concerns E. faecium ATCC 700221. Kind of assay: Microbroth dilution MIC (CLSI). It is filed as cell-based. The settings on record: Enterococcus faecium, ATCC700221; E. faecium ATCC 700221; read-out: MIC. The method in brief: as §3
In assay [9] the test system is E. spp. cloacae ATCC 13047. As to the kind of experiment: Microbroth dilution MIC (CLSI). The assay is classed as cell-based. Conditions: Enterobacter cloacae, ATCC13047; E. spp. cloacae ATCC 13047; read-out: MIC. The gist of the method:
as §3

Assay [10] relates to K. pneumoniae ATCC 10031. Kind of assay: Microbroth dilution MIC (CLSI). The assay is classed as cell-based. The settings on record: Klebsiella pneumoniae, ATCC10031; K. pneumoniae ATCC 10031; read-out: MIC. The gist of the method: as §3
The test system of assay [11] is P. aeruginosa ATCC 27853. Kind of assay: Microbroth dilution MIC (CLSI). It is filed as cell-based. The settings on record: Pseudomonas aeruginosa, ATCC27853; P. aeruginosa ATCC 27853; read-out: MIC. The gist of the method:
as §3

For assay [12], the system named is S. aureus ATCC 29213. As to the kind of experiment: Microbroth dilution MIC (CLSI). The assay is classed as cell-based. The settings on record: Staphylococcus aureus, ATCC29213; S. aureus ATCC 29213; read-out: MIC. The gist of the method: as §3
The subject of assay [13] is S. aureus ATCC 43300 (MRSA). Kind of assay: Microbroth dilution MIC (CLSI). The assay is classed as cell-based. Conditions: Staphylococcus aureus; S. aureus ATCC 43300 (MRSA); read-out: MIC. The method in brief: as §3
The subject of assay [14] is S. aureus ATCC 700699 (VISA). As to the kind of experiment: Microbroth dilution MIC (CLSI). The assay is classed as cell-based. The settings on record: Staphylococcus aureus; S. aureus ATCC 700699 (VISA); read-out: MIC. The gist of the method:
as §3

Assay [15] has as its system A. baumannii (ATCC 19606). As to the kind of experiment: Microbroth dilution MIC (CLSI). The assay is classed as cell-based. The settings on record: Acinetobacter baumannii, ATCC19606; A. baumannii (ATCC 19606); read-out: MIC. The gist of the method: as §3
Assay [16] concerns E. faecium (ATCC 35667). As to the kind of experiment: Microbroth dilution MIC (CLSI). Conditions: Enterococcus faecium, ATCC35667; E. faecium (ATCC 35667); read-out: MIC. It is filed as cell-based. The gist of the method:
as §3

For assay [17], the system named is K. pneumoniae (ATCC 700603). Kind of assay: Microbroth dilution MIC (CLSI). It is filed as cell-based. The settings on record: Klebsiella pneumoniae, ATCC700603; K. pneumoniae (ATCC 700603); read-out: MIC. The method in brief:
as §3

Assay [18] deals with E. aerogenes (ATCC 13408). Kind of assay: Microbroth dilution MIC (CLSI). Conditions: Klebsiella aerogenes, ATCC13408; E. aerogenes (ATCC 13408); read-out: MIC. The assay is classed as cell-based, Enterobacter aerogenes. As for the experimental part: The chemical entities described in the present invention were assessed for their antimicrobial activity using a microbroth dilution assay as recommended by the CLSI (Methods for Dilution Antimicrobial Susceptibility Tests for Bacteria That Grow Aerobically, and Methods for Antimicrobial Susceptibility Testing of Anaerobic Bacteria, Clinical and Laboratory Standards Institute, Document M07-A8, and M11-A8, Wayne, PA 19087, USA, 2012.). Compounds were dissolved by using 100% DMSO. Serial two-fold dilutions of each compound were made by using 100% DMSO as the diluent.
A library of Gram-negative and Gram-positive microbes and their drug- and multidrug-resistant variants were employed as test organisms. The MIC (minimum inhibitory concentration) was determined as the lowest concentration of an individual drug that lead to no visible growth.

Setting [19] is: S. aureus topo IV, read-out: RA (residual activity of the enzyme).
The mark [20] stands for this setting: 0.1 μM compound, read-out: RA (residual activity of the enzyme).
Setting [21] is: read-out: RA (residual activity of the enzyme).

Molecules are shown by their SMILES. pIC50: −log10 of the molar value.

T3 sequence (P20831 whole entry): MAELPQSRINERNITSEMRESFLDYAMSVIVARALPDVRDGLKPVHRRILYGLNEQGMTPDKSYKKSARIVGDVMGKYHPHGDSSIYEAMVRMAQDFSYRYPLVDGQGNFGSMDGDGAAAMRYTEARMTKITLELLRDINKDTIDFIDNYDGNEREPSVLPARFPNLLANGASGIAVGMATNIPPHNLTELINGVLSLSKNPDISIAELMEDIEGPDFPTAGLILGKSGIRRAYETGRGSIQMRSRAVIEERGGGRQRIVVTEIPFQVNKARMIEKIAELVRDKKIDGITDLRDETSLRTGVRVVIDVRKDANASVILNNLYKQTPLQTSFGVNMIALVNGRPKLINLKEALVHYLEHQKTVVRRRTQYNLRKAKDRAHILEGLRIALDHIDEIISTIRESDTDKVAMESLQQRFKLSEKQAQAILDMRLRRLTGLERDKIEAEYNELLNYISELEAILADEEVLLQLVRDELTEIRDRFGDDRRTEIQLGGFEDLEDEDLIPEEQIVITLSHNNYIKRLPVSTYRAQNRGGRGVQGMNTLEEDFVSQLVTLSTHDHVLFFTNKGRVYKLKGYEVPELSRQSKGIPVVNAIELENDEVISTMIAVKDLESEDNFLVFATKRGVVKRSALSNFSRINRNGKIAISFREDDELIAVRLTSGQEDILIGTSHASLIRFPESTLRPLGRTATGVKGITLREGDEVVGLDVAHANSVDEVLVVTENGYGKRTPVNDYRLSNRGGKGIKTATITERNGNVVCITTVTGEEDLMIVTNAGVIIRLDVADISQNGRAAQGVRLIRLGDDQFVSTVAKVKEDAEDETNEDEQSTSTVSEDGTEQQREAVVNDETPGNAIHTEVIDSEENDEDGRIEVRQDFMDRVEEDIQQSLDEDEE
T3 sequence (P0A0K8 whole entry): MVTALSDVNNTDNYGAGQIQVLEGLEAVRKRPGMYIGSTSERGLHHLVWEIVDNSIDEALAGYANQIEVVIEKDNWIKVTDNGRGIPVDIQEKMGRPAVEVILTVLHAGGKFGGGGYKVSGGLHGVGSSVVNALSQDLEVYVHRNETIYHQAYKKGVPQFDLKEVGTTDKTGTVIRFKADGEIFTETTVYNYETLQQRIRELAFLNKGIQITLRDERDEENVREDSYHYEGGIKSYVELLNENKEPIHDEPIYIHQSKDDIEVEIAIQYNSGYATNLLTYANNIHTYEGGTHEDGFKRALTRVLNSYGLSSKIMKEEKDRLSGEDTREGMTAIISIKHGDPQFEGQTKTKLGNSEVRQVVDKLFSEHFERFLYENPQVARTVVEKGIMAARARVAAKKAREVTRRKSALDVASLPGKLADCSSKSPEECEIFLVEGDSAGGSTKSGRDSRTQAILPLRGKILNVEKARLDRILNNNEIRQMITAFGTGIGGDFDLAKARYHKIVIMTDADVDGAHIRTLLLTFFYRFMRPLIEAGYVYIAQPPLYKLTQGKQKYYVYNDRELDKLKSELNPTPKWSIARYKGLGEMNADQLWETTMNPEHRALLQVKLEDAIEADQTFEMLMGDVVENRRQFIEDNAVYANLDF

Consider `Cc1[nH]c(C(=O)Nc2ccc(-c3noc(=O)[nH]3)cc2N2CCOCC2)c(Cl)c1Cl` [Example 8, 3,4-Dichloro-5-methyl-N-(2-morpholino-4-(5-oxo-4,5-dihydro-1,2,4-oxadiazol-3-yl)phenyl)-1H-pyrrole-2-carboxamide], for which the pIC50 in assay [1] was 7.89. The remaining activity at 0.1 µM in [2] (setting [19]) was found to be 51%. For the same molecule, the remaining activity at 1 µM in assay [2] (S. aureus topo IV, 1 μM compound, read-out: RA (residual activity of the enzyme)) was 10%.
With `Cc1[nH]c(C(=O)Nc2ccc(-n3nn[nH]c3=O)cc2N2CCC(N)CC2)c(Cl)c1Cl.Cl` [Example 23, 1-(2-(3,4-Dichloro-5-methyl-1H-pyrrole-2-carboxamido)-5-(5-oxo-4,5-dihydro-1H-tetrazol-1-yl)phenyl)piperidin-4-aminium chloride], the pIC50 in assay [1] is 8.40; in assay [3] it was 6.67; in assay [4], 4.94; in [2] it was 5.21. For the same molecule, the MIC in assay [5], in [6], in assay [7], in assay [8], in assay [9] and in assay [10] was no less than 32 µg/mL in each case. Moreover, the minimum inhibitory concentration (MIC) in assay [11], in [12], in [13] and in assay [14] was no less than 32 µg/mL each time.
Take `Cc1[nH]c(C(=O)Nc2ccc(-c3noc(=O)[nH]3)cc2N2CCCC(N)C2)c(Cl)c1Cl.Cl` (stereo not shown) [Example 2, 1-(2-(3,4-Dichloro-5-methyl-1H-pyrrole-2-carboxamido)-5-(5-oxo-4,5-dihydro-1,2,4-oxadiazol-3-yl)phenyl)piperidin-3-aminium chloride]: the values for the pIC50 in assay [1], in assay [3] and in assay [4] were 8.60, 7.25 and 6.84, respectively. Further, the MIC in [5] is greater than 64 µg/mL; in assay [6], greater than 64 µg/mL; in [7] it was 8 µg/mL; in assay [8], 8 µg/mL; in assay [9], greater than 64 µg/mL; in [10], 16 µg/mL. In addition, the MIC in [11], in assay [12], in [13] and in [14] was greater than 64 µg/mL throughout.
Take `Cc1[nH]c(C(=O)Nc2ccc(-c3nn[nH]n3)cc2N2CCCC(CN)C2)c(Cl)c1Cl.Cl` (stereo not shown) [Example 9, (1-(2-(3,4-Dichloro-5-methyl-1H-pyrrole-2-carboxamido)-5-(2H-tetrazol-5-yl)phenyl)piperidin-3-yl)methanaminium chloride]: the results for the pIC50 in assay [1], in [3] and in assay [4] were 8.67, 7.46 and 7.22, respectively. The MIC in [5] was greater than 64 µg/mL; in assay [6], greater than 64 µg/mL; in assay [7], 8 µg/mL; in [8] it was 16 µg/mL; in [9], greater than 64 µg/mL; in assay [10] it was 64 µg/mL. For the same molecule, the minimal inhibitory concentration (MIC) is greater than 64 µg/mL in assay [11], 16 µg/mL in assay [12], greater than 64 µg/mL in [13] and greater than 64 µg/mL in assay [14].
For `Cc1[nH]c(C(=O)Nc2ccc(C(=O)O)cc2N2CCC[C@H](N)C2)c(Cl)c1Cl.Cl` [Example 14, (S)-1-(5-carboxy-2-(3,4-dichloro-5-methyl-1H-pyrrole-2-carboxamido)phenyl)piperidin-3-aminium chloride], in assay [1] (setting [20]), the remaining activity at 0.1 µM amounted to 52%. Moreover, the remaining activity at 1 µM in assay [1] (setting [21]) was -2%. In addition, the MIC in assay [15], in assay [6], in assay [16], in assay [17], in assay [11] and in assay [12] was no less than 64 µg/mL each time. The MIC in assay [18] was no less than 64 µg/mL.
For the molecule `Cc1nnc(-c2ccc(NC(=O)c3[nH]c(C)c(Cl)c3Cl)c(OC(C)C)c2)o1` [Example 21, 3,4-Dichloro-N-(2-isopropoxy-4-(5-methyl-1,3,4-oxadiazol-2-yl)phenyl)-5-methyl-1H-pyrrole-2-carboxamide], in assay [1] (setting [21]), the remaining activity at 1 µM turned out to be 95%. For the same molecule, the minimum inhibitory concentration (MIC) in [15], in assay [6], in [16], in assay [17], in [11] and in [12] was no less than 64 µg/mL in each case. Besides, in [18], the MIC was no less than 64 µg/mL.
As for `Cc1[nH]c(C(=O)Nc2ccc(-c3n[nH]c(=O)o3)cc2N2CC[C@H](N)C2)c(Cl)c1Cl.Cl` [Example 20, (S)-1-(2-(3,4-Dichloro-5-methyl-1H-pyrrole-2-carboxamido)-5-(5-oxo-4,5-dihydro-1,3,4-oxadiazol-2-yl)phenyl)pyrrolidin-3-aminium chloride], in assay [1], the pIC50 was 8.55. Besides, the remaining activity at 0.01 µM in [3] (0.01 μM compound, read-out: RA (residual activity of the enzyme)) was 90%. Besides, the remaining activity at 0.1 µM in assay [3] (setting [20]) is 39%; in assay [2] (setting [19]), 99%. Further, the remaining activity at 1 µM in assay [4] (1 μM compound, read-out: RA (residual activity of the enzyme)) amounted to 105%. Moreover, the MIC in [5] is 8 µg/mL; in assay [6], 8 µg/mL; in [7], 1 µg/mL; in assay [9], 32 µg/mL; in assay [10], 0.064 µg/mL; in [11], 32 µg/mL. Also, the MIC in [12] and in assay [13] was 2 µg/mL throughout.
`Cl.N[C@@H]1CCN(c2cc(C(=O)NCC(=O)O)ccc2NC(=O)c2cc(Br)c(Br)[nH]2)C1` [Example 37, (R)-1-(5-((Carboxymethyl)carbamoyl)-2-(4,5-dibromo-1H-pyrrole-2-carboxamido)phenyl)pyrrolidin-3-aminium chloride]: the pIC50 in [1] was 5.62. For the same molecule, in assay [3] (10 μM compound, read-out: RA (residual activity of the enzyme)), the remaining activity at 10 µM is 78%. The MIC in assay [15], in assay [6], in [16], in assay [17], in [11] and in assay [12] was no less than 64 µg/mL each time. The MIC in [18] is no less than 64 µg/mL.
